From paper PMC3401907, “Cellular Uptakes, Biostabilities and Anti-miR-210 Activities of Chiral Arginine-PNAs in Leukaemic K562 Cells” (Chembiochem, 2012)

How the values were obtained:
miR-210 = miR-210 content by RT-qPCR analysis; assay type: cell-based, human; conditions: K562 cells, 24 h
Procedure: K562 cells were treated with 15 nM mithramycin in the presence of a PNA (2 μM), and after 24 h RNA was isolated and miR-210 was assayed by RT-qPCR analysis. This type of test has been used to evaluate miR content in many studies because it allows the free-miR content to be evaluated. […] Figure 5 A and B reports the obtained data, showing that inhibition of miR bioavailability was induced both with the modified PNA and with the peptide-conjugated one, whereas in the case of PNA1 it was unchanged. […] This might be related to inhibition of pre-miR maturation or to unavailability of the miR to the qRT-PCR analysis due to strong complexation with the PNA. In either case the bioavailability of the miR for targeting other genes should be reduced.
Transfection procedures: Anti-miR-210 PNAs were directly added to the cellular medium to reach the indicated final concentrations. K562 cells were cultured in 24-well plates starting from the initial density of 30 000 cells per mL. MTH was administrated together with anti-miR PNAs.
RNA extraction: Cells were isolated by centrifugation at 1500 rpm for 10 min at 4 °C, washed in PBS and lysed in Tri-reagent (Sigma–Aldrich) according to the manufacturer's instructions. The isolated RNA was washed once with cold ethanol (75 %), dried and dissolved in ultrapure nuclease-free water.
Real-time quantitative PCR: For microRNA quantification with real-time RT-PCR reagents, the primers and probes were obtained from Applied Biosystems. Reverse transcriptase (RT) reactions were performed with a TaqMan MicroRNA Reverse Transcription Kit (Applied Biosystems) for hsa-miR-210, hsa-miR-10a, hsa-miR-93, hsa-miR-99b, hsa-miR-126, hsa-miR-149, hsa-miR-424, hsa-miR-483-5p, hsa-miR-625, hsa-let-7c and the iQTM5 real-time PCR System Instrument (Bio-Rad). Relative expression was calculated by the comparative cycle threshold method and U6 microRNA was used as reference gene to normalise all RNA samples, because it is constant in the assayed samples by miR-profiling and quantitative RT-PCR analysis as previously reported.[25]

[1] = test system: RNA2 (mismatched RNA, G→U); test: Melting temperature (Tm) of PNA:RNA duplexes, single-mismatch RNA; assay type: binding; conditions: UV absorbance at 260 nm, PBS buffer pH 7 with urea 5 M, strand concentration 5 μM
From the text: Sequence selectivity is a very important issue in view of the use of PNAs in cellular systems, because partial hybridisation might occur with other unrelated miRNAs or, most importantly, with mRNA targets. We analysed the sequence selectivities of our PNAs with stricter models (DNA2 and RNA2) involving single base mismatches (G→T or G→U) located in the middle of the target sequences. In each case the sequence selectivity was confirmed by significant lowering of the melting temperature. The ranges of ΔTm due to the presence of these single mismatches were 8–21 °C for DNA, with the maximum drop in the case of PNA4 and the minimum observed in that of PNA6. For the latter it should be considered that the mismatch was facing the last chiral monomer, preventing the cooperative effect observed in the case of 2D-modifed highly constrained PNA.[22]
(§1) Measurements of Tm values: The Tm values were determined with a Lambda Bio 20 spectrophotometer and a Peltier PTP6 temperature programmer. Thermal denaturation profiles were measured by monitoring the absorbance at 260 nm from 18 to 90 °C with a heating rate of 1 °C min^−1 and recording every 0.1 °C. Measurement conditions: [PNA]=[DNA] or [RNA]=5 μM in PBS buffer [pH 7.0, NaCl (100 mM), NaH2PO4⋅H2O (10 mM), EDTA (0.1 mM)] with urea (5 M).

K562 cells = test: Mithramycin-induced erythroid differentiation (benzidine-positive cells); assay type: cell-based, human; conditions: MTH 15 nM, PNA 2 μM, benzidine-positive cells after 5 days of induction, three independent experiments
Procedure: In order to evaluate effects on mithramycin-induced cellular differentiation, K562 cells were treated with MTH in the presence of pept-1, PNA1, PNA2 and PNA4 (each 2 μM). The proportions of benzidine-positive cells were determined after 5 days of induction.
Human cell lines and culture conditions: Human leukaemia K562 cells were cultured under humidified CO2 (5 %)/air in RPMI 1640 medium (Sigma) supplemented with foetal bovine serum (FBS, 10 %, Analitical de Mori, Milan, Italy), penicillin (50 units mL^−1) and streptomycin (50 μg mL^−1).[26] Mithramycin (MTH) was from Sigma. Stock solutions of MTH (100 μM) were stored at −20 °C in the dark and diluted immediately before use. Treatment of K562 cells with MTH was carried out by addition of the appropriate drug concentrations at the beginning of the cultures (cells were seeded at 30 000 mL^−1). The medium was not changed during the induction period. To determine antiproliferative activity, cell growth was studied by determining the cell number per mL with a Z1 Coulter Counter (Coulter Electronics, Hialeah, FL, USA). Erythroid differentiated K562 cells containing haemoglobin were detected by specific reaction with a benzidine/hydrogen peroxide solution as reported elsewhere.[26] The final concentration of benzidine was 0.2 % in glacial acetic acid (5 M) and H2O2 (10 %).

[2] = test system: RNA1 (target region of miR-210); test: Melting temperature (Tm) of PNA:RNA duplexes, full-match RNA; assay type: binding; conditions: UV absorbance at 260 nm, strand concentration 5 μM
Procedure: as §1, with “Measurement conditions: [PNA]=[DNA] or [RNA]=5 μM in PBS buffer [pH 7.0, NaCl (100 mM), NaH2PO4⋅H2O (10 mM), EDTA (0.1 mM)] with urea (5 M).” left out

[3] = test system: DNA1 (full-match antiparallel DNA); test: Melting temperature (Tm) of PNA:DNA duplexes, full-match DNA; assay type: binding; conditions: UV absorbance at 260 nm, strand concentration 5 μM
Procedure: as §1, with “Measurement conditions: [PNA]=[DNA] or [RNA]=5 μM in PBS buffer [pH 7.0, NaCl (100 mM), NaH2PO4⋅H2O (10 mM), EDTA (0.1 mM)] with urea (5 M).” left out

In the case of “H-C5LArgC5LArgG5LArgC5LArgT5LArgG5LArgT5LArgC5LArgACACGCACAG-NH2 [PNA4, 5L Arg (C5) backbone-modified 18-mer PNA, model 2, stretch of consecutive modified monomers]”, the “miR-210 inhibition upon treatment with mithramycin” value (miR-210; PNA 2 μM with MTH 15 nM, relative to pept-1 and MTH) is reported as “best results”, the “inhibition of miR-210 bioavailability (miR-210 content)” value (miR-210; PNA 2 μM, Figure 5 A and B, relative to pept-1) is reported as “Stronger inhibition” and the “Tm, RNA2 in urea (5 M)” value [1] is reported as 75 °C. The “effect on MTH-induced erythroid differentiation” value (K562 cells) was “able to inhibit erythroid differentiation”, the “Tm, RNA1 in water” value ([2]; PBS buffer pH 7, no urea) was greater than 90 °C and the “Tm, RNA1 in urea (5 M)” value ([2]; PBS buffer pH 7 with urea 5 M) was 86 °C. The “Tm, DNA1 in urea (5 M)” value ([3]; PBS buffer pH 7 (NaCl 100 mM, NaH2PO4 10 mM, EDTA 0.1 mM) with urea 5 M) was 77 °C and the “Tm, DNA1 in water” value ([3]; PBS buffer pH 7, no urea, 18 to 90 °C at 1 °C/min) was greater than 90 °C.
